# Experimental data taken from PMC8421619, “Investigation of MDMA Inhibitory Effect on CytochromeP450 3A4 in Isolated Perfused Rat Liver Model Using Tramadol” (Advanced Pharmaceutical Bulletin, 2020).
# Marks after values point to notes of the source that are not given here.
# Tests used:
# [1] = test system: CYP2D6; experiment: Isolated perfused rat liver, tramadol O-demethylation to M1 after MDMA or paroxetine pretreatment; format: in vivo; conditions: tramadol 1 µg/mL, n=4; for Metabolite ratio M1 % decrease compared to the control group: AUC0-t M1 / AUC0-t tramadol
# [2] = design: method as in doi:10.1007/s002130000545, PMID 12404536, PMID 12869661; conditions: following ecstasy consumption; cited from earlier work
# [3] = Isolated perfused rat liver, tramadol AUC in perfusate after MDMA or paroxetine pretreatment; format: in vivo; conditions: MDMA 1, 5 and 10 mg/kg i.p.; tramadol 1 µg/mL
# [4] = test system: CYP3A4; experiment: Isolated perfused rat liver, tramadol N-demethylation to M2 after MDMA or paroxetine pretreatment; format: in vivo; conditions: regular doses of MDMA (1-10 mg/kg)
smiles,measurement,setting,value
Fc1ccc([C@@H]2CCNC[C@H]2COc2ccc3c(c2)OCO3)cc1 [paroxetine],AUC M1 % decrease compared to the control group,"[1]; paroxetine 0.266 mg/kg oral, three consecutive days, listed as PXL",40* %
same,Metabolite ratio M1 % decrease compared to the control group,"[1]; paroxetine 0.266 mg/kg oral, three days",30%
same,Metabolite ratio M1 % decrease compared to the control group,"[1]; paroxetine 0.266 mg/kg oral, three days, listed as PXL",30* %
"CNC(C)Cc1ccc2c(c1)OCO2 (stereo not shown) [MDMA, methylenedioxymethamphetamine]",AUC M1 % decrease compared to the control group,[1]; MDMA 1 mg/kg i.p. 1 h before liver perfusion,38%
same,Metabolite ratio M1 % decrease compared to the control group,[1]; MDMA 1 mg/kg i.p.,29%
same,AUC M1 % decrease compared to the control group,[1]; MDMA 10 mg/kg i.p. 1 h before liver perfusion,50%
same,Metabolite ratio M1 % decrease compared to the control group,[1]; MDMA 10 mg/kg i.p.,45%
same,duration of positive psychological effects,[2],3-6 hours
same,tramadol AUC compared to the control group,[3],no significant differences
same,CYP3A4 activity inhibition,[4],cannot inhibit
